Test results taken from patent USRE47689E1, “Compounds for treating spinal muscular atrophy” (PTC Therapeutics, Inc., priority 2011, dated 2019).

Legend:
[1] = test system: SMN2 minigene (full length SMN2 minigene mRNA containing SMN2 exon 7); experiment: SMN2 minigene mRNA splicing RT-qPCR assay in cultured cells; assay type: cell-based, human; conditions: Homo sapiens, HEK293-H; HEK293H cells stably transfected with SMN2-A minigene; 24 hours; 7-point concentration curve; 1.5-fold relative to vehicle-treated cells; read-out: EC1.5x for production of full length SMN2 mRNA
Method in brief: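 Read-out: full-length (exon 7-included) SMN2 minigene mRNA by multiplex RT-qPCR with GAPDH, efficiency-corrected (1+E)^−Ct, GAPDH-normalized and divided by vehicle. Stably transfected HEK293H cells, 24 h compound exposure, duplicates per concentration. Value is EC1.5x, reported as star ranges.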

Smn protein = Smn protein assay in cultured cells (SMN HTRF); assay type: cell-based, human; conditions: 48 hours; for maximum fold (Fold) increase of Smn protein: SMA patient fibroblast cells, 7-point concentration data, fold increase relative to vehicle control (SMN HTRF); for EC1.5x (concentration giving 1.5-fold Smn protein increase): SMA Type 1 patient fibroblast cells (GM03813), 7-point concentration curve, SMN HTRF, concentration producing 1.5 times Smn protein vs DMSO vehicle control, read-out: EC1.5x for Smn protein expression
Method in brief: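 Lysates in RIPA with protease inhibitors are incubated overnight at room temperature with HTRF anti-SMN antibodies. EC1.5x is derived from fold increase in ΔF over vehicle.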

SMILES | EC (1.5-fold) [1] | maximum fold (Fold) increase of Smn protein (Smn protein) | melting point | EC1.5x (concentration giving 1.5-fold Smn protein increase) (Smn protein)
COc1ccc(-c2cc3ccc(N4C[C@@H](C)N[C@@H](C)C4)cc3oc2=O)cc1OC [Compound 384, 3-(3,4-dimethoxyphenyl)-7-[(3R,5S)-3,5-dimethylpiperazin-1-yl]-2H-chromen-2-one] | 3 to 30 µM | * (maximum fold increase of ≤1.2) | 130 to 132 °C | –
Cc1cn2cc(-c3cc4ccc(OC[C@H]5CCCN5)cc4oc3=O)nc2c(C)n1 [Cpd 948, 3-(6,8-dimethylimidazo[1,2-a]pyrazin-2-yl)-7-[(2R)-pyrrolidin-2-ylmethoxy]-2H-chromen-2-one] | < 0.1 µM | *** (fold increase between >1.35 and ≤1.5) | 172 to 174 °C | –
Cc1cn2cc(-c3cc4ccc(N5CCN(C(C)C)CC5)cc4oc3=O)cc2c(C)n1 [Compound 709, 3-(1,3-dimethylpyrrolo[1,2-a]pyrazin-7-yl)-7-[4-(propan-2-yl)piperazin-1-yl]-2H-chromen-2-one] | < 0.1 µM | **** (fold increase between >1.5 and ≤1.65) | 173 to 176 °C | 300 to 1000 nM
Cc1cn2cc(-c3cc4ccc(N5CCC(CN)CC5)cc4oc3=O)cc2c(C)n1 [Compound 784, 7-[4-(aminomethyl)piperidin-1-yl]-3-(1,3-dimethylpyrrolo[1,2-a]pyrazin-7-yl)-2H-chromen-2-one] | 1 to 3 µM | ** (fold increase between >1.2 and ≤1.35) | 256 to 259 °C | –
C[C@@H]1CN(c2ccc3cc(-c4cn5cccc(Cl)c5n4)c(=O)oc3c2)CCN1 [Compound 183, 3-(8-chloroimidazo[1,2-a]pyridin-2-yl)-7-[(3R)-3-methylpiperazin-1-yl]-2H-chromen-2-one] | 0.3 to 1 µM | ** (fold increase between >1.2 and ≤1.35) | 215 to 218 °C | –
Cc1cn2cc(-c3cc4ccc(N5CCN6CCCCC6C5)cc4oc3=O)cc2cn1 (stereo not shown) [Compound 646, 3-(3-methylpyrrolo[1,2-a]pyrazin-7-yl)-7-(octahydro-2H-pyrido[1,2-a]pyrazin-2-yl)-2H-chromen-2-one] | < 0.1 µM | **** (fold increase between >1.5 and ≤1.65) | 218 to 221 °C | < 300 nM
Cc1nc(Cl)cn2cc(-c3cc4ccc(N5CCN(C)[C@@H](C)C5)cc4oc3=O)nc12 [Compound 727, 3-(6-chloro-8-methylimidazo[1,2-a]pyrazin-2-yl)-7-[(3S)-3,4-dimethylpiperazin-1-yl]-2H-chromen-2-one] | 0.1 to 0.3 µM | *** (fold increase between >1.35 and ≤1.5) | 251 to 253 °C | 1000 to 3000 nM
CCN1CCN(c2ccc3cc(-c4cn5cc(Cl)nc(C)c5n4)c(=O)oc3c2)CC1 [Compound 766, 3-(6-chloro-8-methylimidazo[1,2-a]pyrazin-2-yl)-7-(4-ethylpiperazin-1-yl)-2H-chromen-2-one] | < 0.1 µM | *** (fold increase between >1.35 and ≤1.5) | 228 to 230 °C | –
C[C@@H]1CN(c2ccc3cc(-c4cnc5ccccc5n4)c(=O)oc3c2)C[C@H](C)N1 [Compound 461, 7-[(3R,5S)-3,5-dimethylpiperazin-1-yl]-3-(quinoxalin-2-yl)-2H-chromen-2-one] | 3 to 30 µM | * (maximum fold increase of ≤1.2) | 234 to 236 °C | –
COc1ccc(-c2cc3ccc(N4CCN[C@H](C)C4)cc3oc2=O)cc1 [Compound 448, 3-(4-methoxyphenyl)-7-[(3R)-3-methylpiperazin-1-yl]-2H-chromen-2-one] | 1 to 3 µM | * (maximum fold increase of ≤1.2) | 123 to 126 °C | –
C[C@@H]1CN(c2ccc3cc(-c4cn5cccc(F)c5n4)c(=O)oc3c2)C[C@H](C)N1 [Compound 338, 7-[(3R,5S)-3,5-dimethylpiperazin-1-yl]-3-(8-fluoroimidazo[1,2-a]pyridin-2-yl)-2H-chromen-2-one] | 0.1 to 0.3 µM | ** (fold increase between >1.2 and ≤1.35) | 176 to 180 °C | 3000 to 10000 nM
Cc1cn2cc(-c3cc4ccc(NC5CCNCC5)cc4oc3=O)nc2c(C)n1 [Compound 562, 3-(6,8-dimethylimidazo[1,2-a]pyrazin-2-yl)-7-(piperidin-4-ylamino)-2H-chromen-2-one] | < 0.1 µM | **** (fold increase between >1.5 and ≤1.65) | 255 to 261 °C | < 300 nM
Cc1cn2cc(-c3cc4ccc(C5CCN(C)CC5)cc4oc3=O)nc2cn1 [Compound 841, 3-(6-methylimidazo[1,2-a]pyrazin-2-yl)-7-(1-methylpiperidin-4-yl)-2H-chromen-2-one] | < 0.1 µM | ***** (fold increase >1.65) | 266 to 272 °C | < 300 nM
CN(C)Cc1ccc2cc(-c3nc4ccccc4s3)c(=O)oc2c1 [Compound 13, 3-(1,3-benzothiazol-2-yl)-7-[(dimethylamino)methyl]-2H-chromen-2-one] | 1 to 3 µM | ** (fold increase between >1.2 and ≤1.35) | 171 to 176 °C | –
Cc1cn2cc(-c3cc4ccc(OC5CCN(C(C)C)CC5)cc4oc3=O)nc2c(C)n1 [Compound 901, 3-(6,8-dimethylimidazo[1,2-a]pyrazin-2-yl)-7-{[1-(propan-2-yl)piperidin-4-yl]oxy}-2H-chromen-2-one] | < 0.1 µM | ***** (fold increase >1.65) | 185 to 191 °C | < 300 nM
Cc1ccc2oc(-c3cc4ccc(N5CCN(C)CC5)cc4oc3=O)cc2n1 [Cpd 698, 3-(5-methylfuro[3,2-b]pyridin-2-yl)-7-(4-methylpiperazin-1-yl)-2H-chromen-2-one] | 1 to 3 µM | * (maximum fold increase of ≤1.2) | 178 to 180 °C | –
COc1ccc(-c2cc3ccc(N4CCN[C@H](C)C4)cc3oc2=O)c(OC)c1 [Compound 466, 3-(2,4-dimethoxyphenyl)-7-[(3R)-3-methylpiperazin-1-yl]-2H-chromen-2-one] | 3 to 30 µM | * (maximum fold increase of ≤1.2) | 101 to 103 °C | –
Cc1cc(F)cn2cc(-c3cc4ccc(N5C[C@@H](C)N[C@@H](C)C5)cc4oc3=O)nc12 [Compound 331, 7-[(3R,5S)-3,5-dimethylpiperazin-1-yl]-3-(6-fluoro-8-methylimidazo[1,2-a]pyridin-2-yl)-2H-chromen-2-one] | 0.3 to 1 µM | * (maximum fold increase of ≤1.2) | 290 to 300 °C | –
C[C@H]1CN(c2ccc3cc(-c4ccc(N(C)C)nc4)c(=O)oc3c2)CCN1 [Compound 548, 3-[6-(dimethylamino)pyridin-3-yl]-7-[(3S)-3-methylpiperazin-1-yl]-2H-chromen-2-one] | 3 to 30 µM | * (maximum fold increase of ≤1.2) | 194 to 196 °C | –
